We go through eight compounds from patent US11034650B2, “Compounds useful for treating a Mannheimia haemolytica or Histophilus somni infection” (Intervet Inc., priority 2016, dated 2021).

Molecules are shown by their SMILES. ≈ marks a conversion by molar mass, not a printed value.

Type in all cases: cell-based
The subject of test [1] is Pasteurella multocida PM 12080 (IV102277-0093, BRD field isolate). The experiment in a line: MIC, broth-microdilution (CLSI VET01-A4), strain PM 12080. The settings on record: Pasteurella multocida strain PM 12080, broth-microdilution; unit assumed. The method, boiled down: (§1)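 Compounds were serially diluted twofold in microdilution trays. Growth was judged by eye, and the MIC was the lowest concentration showing no turbidity. Results were interpreted per CLSI VET01-S3.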

Test [2] deals with Mannheimia haemolytica MH 6357 (M7/2, reference strain, cattle infection strain). The experiment in a line: MIC, broth-microdilution (CLSI VET01-A4), strain MH 6357. The settings on record: Mannheimia haemolytica strain MH 6357, broth-microdilution; unit assumed. Put shortly: as §1
In test [3] the test system is Mannheimia haemolytica MH 10720 (154, BRD field isolate). The experiment in a line: MIC, broth-microdilution (CLSI VET01-A4), strain MH 10720. The settings on record: Mannheimia haemolytica strain MH 10720, broth-microdilution; unit assumed. The method, boiled down: as §1
The subject of test [4] is Mannheimia haemolytica MH 12587 (1071, BRD field isolate, macrolide-resistance: erm+, E+). The experiment in a line: MIC, broth-microdilution (CLSI VET01-A4), strain MH 12587. The settings on record: Mannheimia haemolytica strain MH 12587, broth-microdilution; unit assumed. Put shortly:
as §1

Test [5] deals with Mannheimia haemolytica MH 6374 (ATCC 33396, reference strain). Kind of test: MIC, broth-microdilution (CLSI VET01-A4), strain MH 6374. The following applies: Mannheimia haemolytica strain MH 6374, broth-microdilution; unit assumed. Put shortly: as §1
Test [6] deals with Pasteurella multocida PM 6391 (ATCC 43137, reference strain). The experiment in a line: MIC, broth-microdilution (CLSI VET01-A4), strain PM 6391. The following applies: Pasteurella multocida strain PM 6391, broth-microdilution; unit assumed. The method, boiled down:
as §1

The subject of test [7] is Pasteurella multocida PM 6267 (P 2225 (L386), reference strain, mouse infection strain). Kind of test: MIC, broth-microdilution (CLSI VET01-A4), strain PM 6267. The following applies: Pasteurella multocida strain PM 6267, broth-microdilution; unit assumed. Put shortly: as §1
For test [8], the system named is Mannheimia haemolytica MH 13093 (XB0472-6014.1, BRD field isolate). The experiment in a line: MIC, broth-microdilution (CLSI VET01-A4), strain MH 13093. The settings on record: Mannheimia haemolytica strain MH 13093, broth-microdilution; unit assumed. Put shortly: as §1
For test [9], the system named is Mannheimia haemolytica MH 13065 (XB0446-6003.9, BRD field isolate). The experiment in a line: MIC, broth-microdilution (CLSI VET01-A4), strain MH 13065. The settings on record: Mannheimia haemolytica strain MH 13065, broth-microdilution; unit assumed. The method, boiled down: as §1
Test [10] deals with Pasteurella multocida PM 10775 (080130003051, BRD field isolate). Kind of test: MIC, broth-microdilution (CLSI VET01-A4), strain PM 10775. The settings on record: Pasteurella multocida strain PM 10775, broth-microdilution; unit assumed. Put shortly:
as §1

On to `CC[C@H](C)[C@H](NC(=O)c1ccc(C#Cc2ccc(CNCc3ncc[nH]3)cc2)cc1)C(=O)NO` [Compound 184], for which the MIC PM 12080 in test [1] came to 1.6 µg/mL (≈ 3.48 µM). For the same compound, the MIC MH 6357 in [2] worked out at 12.5 µg/mL (≈ 27.2 µM). In test [3], this compound came in with an MIC MH 10720 of 0.8 µg/mL (≈ 1.74 µM). In [4], this compound registered an MIC MH 12587 of 12.5 µg/mL (≈ 27.2 µM). The MIC MH 6374 in [5] was 6.3 µg/mL (≈ 13.7 µM). In test [6], this compound came in with an MIC PM 6391 of 3.1 µg/mL (≈ 6.75 µM). Further, the MIC PM 6267 in test [7] came out at 0.4 µg/mL (≈ 0.87 µM). The same compound showed an MIC MH 13093 in [8] of 6.3 µg/mL (≈ 13.7 µM). Also, the MIC MH 13065 in [9] worked out at 6.3 µg/mL (≈ 13.7 µM). In addition, the MIC PM 10775 in test [10] is ≤ 0.1 µg/mL.
Consider `CC[C@H](C)[C@H](NC(=O)c1ccc(C#Cc2ccc(CNC(C)COC)cc2)cc1)C(=O)NO` (some centres unmarked) [Compound 185], for which the MIC PM 12080 in test [1] was 0.4 µg/mL (≈ 0.886 µM). The same compound gave an MIC MH 6357 in test [2] of 3.1 µg/mL (≈ 6.86 µM). Also, the MIC MH 10720 in [3] was determined as 0.8 µg/mL (≈ 1.77 µM). Also, in test [4], the MIC MH 12587 worked out at 6.3 µg/mL (≈ 14 µM). Moreover, the MIC MH 6374 in test [5] was found to be 6.3 µg/mL (≈ 14 µM). In addition, the MIC PM 6391 in test [6] turned out to be 0.8 µg/mL (≈ 1.77 µM). Further, in test [7], the MIC PM 6267 is ≤ 0.1 µg/mL. In addition, the MIC MH 13093 in test [8] was determined as 6.3 µg/mL (≈ 14 µM). In test [9], this compound came in with an MIC MH 13065 of 3.1 µg/mL (≈ 6.86 µM). Moreover, in test [10], the MIC PM 10775 is ≤ 0.1 µg/mL.
As for `CC[C@H](C)[C@H](NC(=O)c1ccc(C#Cc2ccc(CN3CCCOCC3)cc2)cc1)C(=O)NO` [Compound 186], in [1], the MIC PM 12080 was found to be 0.2 µg/mL (≈ 0.431 µM). The MIC MH 6357 in test [2] is 1.6 µg/mL (≈ 3.45 µM). The MIC MH 10720 in test [3] turned out to be 1.6 µg/mL (≈ 3.45 µM). This compound also gave an MIC MH 12587 in test [4] of 6.3 µg/mL (≈ 13.6 µM). Also, the MIC MH 6374 in test [5] is 6.3 µg/mL (≈ 13.6 µM). In test [6], this compound gave an MIC PM 6391 of 0.4 µg/mL (≈ 0.863 µM). The MIC PM 6267 in [7] is ≤ 0.1 µg/mL. The compound also gave an MIC MH 13093 in [8] of 3.1 µg/mL (≈ 6.69 µM). Further, the MIC MH 13065 in test [9] was 3.1 µg/mL (≈ 6.69 µM). Further, the MIC PM 10775 in test [10] is ≤ 0.1 µg/mL.
For `CC[C@H](C)[C@H](NC(=O)c1ccc(C#Cc2ccc(CN3CCCCC3)cc2)cc1)C(=O)NO` [Compound 187], in test [1], the MIC PM 12080 amounted to 0.8 µg/mL (≈ 1.79 µM). Further, the MIC MH 6357 in test [2] is 3.1 µg/mL (≈ 6.93 µM). Further, the MIC MH 10720 in test [3] came out at 1.6 µg/mL (≈ 3.57 µM). Also, the MIC MH 12587 in test [4] amounted to 12.5 µg/mL (≈ 27.9 µM). The same compound yielded an MIC MH 6374 in test [5] of 12.5 µg/mL (≈ 27.9 µM). In test [6], this compound came in with an MIC PM 6391 of 1.6 µg/mL (≈ 3.57 µM). Moreover, in [7], the MIC PM 6267 amounted to 0.4 µg/mL (≈ 0.894 µM). Besides, the MIC MH 13093 in test [8] is 6.3 µg/mL (≈ 14.1 µM). The compound also displayed an MIC MH 13065 in test [9] of 6.3 µg/mL (≈ 14.1 µM). Further, the MIC PM 10775 in test [10] was ≤ 0.1 µg/mL.
Take `CC[C@H](C)[C@H](NC(=O)c1ccc(C#Cc2ccc(CNCc3ccnc(Cl)c3)cc2)cc1)C(=O)NO` [Compound 190]: the MIC PM 12080 in test [1] stood at 0.2 µg/mL (≈ 0.396 µM). The same compound had an MIC MH 6357 in [2] of 1.6 µg/mL (≈ 3.17 µM). The compound further yielded an MIC MH 10720 in [3] of 0.4 µg/mL (≈ 0.792 µM). In test [4], this compound gave an MIC MH 12587 of 3.1 µg/mL (≈ 6.14 µM). Moreover, the MIC MH 6374 in test [5] is 3.1 µg/mL (≈ 6.14 µM). The same compound came in with an MIC PM 6391 in test [6] of 0.4 µg/mL (≈ 0.792 µM). Further, the MIC PM 6267 in test [7] was ≤ 0.1 µg/mL. In addition, the MIC MH 13093 in test [8] came to 1.6 µg/mL (≈ 3.17 µM). In test [9], this compound yielded an MIC MH 13065 of 1.6 µg/mL (≈ 3.17 µM). Moreover, in [10], the MIC PM 10775 is ≤ 0.1 µg/mL.
For `CC[C@H](C)[C@H](NC(=O)c1ccc(C#Cc2ccc(CN3CC(C)OC(C)C3)cc2)cc1)C(=O)NO` (some centres unmarked) [Compound 191], in [1], the MIC PM 12080 is ≤ 0.1 µg/mL. The compound further showed an MIC MH 6357 in test [2] of 6.3 µg/mL (≈ 13.2 µM). This compound also showed an MIC MH 10720 in test [3] of 1.6 µg/mL (≈ 3.35 µM). The MIC MH 12587 in [4] worked out at 25 µg/mL (≈ 52.3 µM). Besides, the MIC MH 6374 in [5] is 25 µg/mL (≈ 52.3 µM). Moreover, the MIC PM 6391 in test [6] is ≤ 0.1 µg/mL. For the same compound, the MIC PM 6267 in [7] is ≤ 0.1 µg/mL. In [8], this compound displayed an MIC MH 13093 of 12.5 µg/mL (≈ 26.2 µM). In addition, in test [9], the MIC MH 13065 turned out to be 6.3 µg/mL (≈ 13.2 µM). Besides, the MIC PM 10775 in test [10] was ≤ 0.1 µg/mL.
The compound `CCCNCc1ccc(C#Cc2ccc(C(=O)N[C@H](C(=O)NO)[C@@H](C)CC)cc2)cc1` [Compound 193] returned an MIC PM 12080 in test [1] of 0.4 µg/mL (≈ 0.949 µM). The compound also displayed an MIC MH 6357 in [2] of 6.3 µg/mL (≈ 14.9 µM). The compound further came in with an MIC MH 10720 in [3] of 0.8 µg/mL (≈ 1.9 µM). Moreover, the MIC MH 12587 in [4] was 6.3 µg/mL (≈ 14.9 µM). The MIC MH 6374 in test [5] is 6.3 µg/mL (≈ 14.9 µM). The MIC PM 6391 in [6] is 0.8 µg/mL (≈ 1.9 µM). The compound further had an MIC PM 6267 in test [7] of 0.4 µg/mL (≈ 0.949 µM). In addition, the MIC MH 13093 in test [8] came to 3.1 µg/mL (≈ 7.35 µM). In test [9], this compound showed an MIC MH 13065 of 3.1 µg/mL (≈ 7.35 µM). Also, the MIC PM 10775 in [10] was ≤ 0.1 µg/mL.
In [1], `CC[C@H](C)[C@H](NC(=O)c1ccc(C#Cc2ccc(CNC3CCCCC3)cc2)cc1)C(=O)NO` [Compound 195] yielded an MIC PM 12080 of 0.4 µg/mL (≈ 0.867 µM). In test [2], the MIC MH 6357 was determined as 6.3 µg/mL (≈ 13.6 µM). The compound further gave an MIC MH 10720 in test [3] of 1.6 µg/mL (≈ 3.47 µM). In test [4], the MIC MH 12587 came out at 12.5 µg/mL (≈ 27.1 µM). Besides, the MIC MH 6374 in test [5] is 12.5 µg/mL (≈ 27.1 µM). The same compound displayed an MIC PM 6391 in [6] of 0.8 µg/mL (≈ 1.73 µM). The MIC PM 6267 in [7] stood at 0.2 µg/mL (≈ 0.433 µM). The MIC MH 13093 in test [8] turned out to be 12.5 µg/mL (≈ 27.1 µM). The compound further registered an MIC MH 13065 in test [9] of 6.3 µg/mL (≈ 13.6 µM). The MIC PM 10775 in test [10] is ≤ 0.1 µg/mL.
